Data published in paper PMC7961587, “Novel Cell Permeable Polymers of N-Substituted L-2,3-Diaminopropionic Acid (DAPEGs) and Cellular Consequences of Their Interactions with Nucleic Acids” (International Journal of Molecular Sciences, 2021).
Square brackets hold non-standard residues; d marks the D form. Peptide text beside a SMILES is read from it. * marks the point of attachment. 5FAM = O=C1OC2(c3ccc(O)cc3Oc3cc(O)ccc32)c2ccc(C(=O)*)cc21; Acetyl(2-(HOCH2CH2OCH2CH2O)) = O=C(COCCOCCO)*; Dap = NC[C@H](N)C(=O)O; AEEA = NCCOCCOCC(=O)O

What was measured:
HB2 and MDA-MB-231 cells = experiment: Cell permeability and localization by fluorescence microscopy; type: cell-based, human; settings: for Cell membrane crossing and localization, in words: 10 µM, fluorescence microscopy, HB2 or MDA-MB-231 cells; for Cell Permeablility (Target): cellular localization: fluorescence microscope Olympus IX51, 10 µM fluorescently labeled compound, DAPI nucleus staining
From the text: Preliminary cell permeability experiments facilitated the identification of three groups of compounds. […] The first group includes compound 4 and its derivatives (4a and 4b) and the family of compound 5 (5a and 5b). Compounds 4 and 5 are similar in structure and are composed of six residues of diaminopropionic acid (Dap) decorated with side chains of different lengths, terminating with the same highly positive guanidine moiety. […] Both compounds display unique cellular localization. […] We believe that such effective nuclear localisation of the first group of tested compounds is due to the effective mimicking of the nuclear localisation sequence (NLS). Such sequence consists of several positively charged lysines or arginines present in the protein structure. Additionally, side chain length of the polymer molecules seems to be a crucial factor that is optimal for compounds belonging to first group of polymers.
HB2 and MDA-MB-231 cells were seeded on 24-well plates at a density 1.5 × 10^4/well and 4 × 10^4/well, respectively, and incubated in 0.5 mL complete medium for 48 h. Subsequently, cells were washed with phosphate-buffered saline (PBS), and fresh medium with a fluorescently labeled peptide was added to each well at a concentration of 10 µM. For nucleus staining a DAPI solution (ThermoFisher Scientific, Waltham, MA, USA, […] R37606) in PBS was employed in conditions recommended by the supplier. After the incubation (2 h or 24 h), cells were washed thoroughly with PBS, and then a phenol red-free culture medium (FluoroBrite, DMEM) was added. Subsequently, the cells were examined using an Olympus IX51 fluorescence microscope (Olympus, Tokyo, Japan) using appropriate filters: blue for DAPI, green for FITC, and red TAMRA. Next, the images were merged and colocalization of the dyes’ emission were analyzed.

[1] = test system: MDA-MB-231 or HB-2 cell lines; experiment: Cytotoxicity assay: MTT; type: cell-based, human; settings: for Cytotoxicity at the concentration used in the cell experiments, in words: 10 µM, MTT, Figure S2, HB-2 and MDA-MB-231; for Cytotoxicity (percentage of dead cells): MTT assay, MDA-MB-231 or HB-2 cell lines, greatest concentration of 50 µg/mL, 24 h
Procedure: Cell viability against cell-penetrating compounds was detected by the MTT assay. The HB2 and MDA-MB-231 cells were seeded into 96-well plates at a density of 5 × 10^3/well and 7 × 10^3/well, respectively, and incubated in complete medium (100 µL/well) for 48 h. […] Cells incubated in media without any test compounds were used as control. After incubation, medium containing test compounds was removed, and 225 µL fresh medium with 25 µL 3-(4,5-dimethylthiazol-2-yl)-2,5-diphenyltetrazolium bromide (MTT) was added (0.5 mg/mL per well). After incubation at 37 °C for 4 h, supernatants were removed, and the formazan crystals were dissolved overnight with dimethyl sulfoxide (DMSO; 150 µL/well). Results were analyzed using a microplate reader (SPECTROstar Nano, BMG LABTECH, Ortenberg, Germany) at 570 nm and 690 nm.

[2] = target: dsDNA (76 bp fragment) containing the sequence of beta-actin; experiment: Microscale thermophoresis (MST), dsDNA binding; set-up: species or system Homo sapiens; settings: Monolith NT.115, 0.437 µM 5/6-FAM-labeled compound, dsDNA 6.1 nM–200 µM, EDBS buffer pH 8, 32 °C 1 h, scanned at 25 °C, at least two independent experiments, read-out: Binding constant, double-stranded DNA (MST)
Procedure: (§1) Figure 7 Microscale thermophoresis (MST) analysis of dsDNA binding by 5/6-FAM-labeled compounds. The MST analysis. FAM-labeled compounds 1a (A), 4a (B), 5a (C), and ssDNA binding by 5/6-FAM-labeled compounds 1a (E), 4a (F), 5a (G) was performed using the Monolith NT.115 instrument (NanoTemper). Binding was measured between increasing concentrations (6.1 nM–200 µM) of dsDNA (76 bp fragment) and 0.437 µM of the indicated compounds labeled with 5/6-FAM. Control experiments were performed with DNA and 5/6-FAM dye (D,H).
(§2) Figure 9 Microscale thermophoresis (MST) analysis of dsDNA binding by 5/6-FAM-labeled compounds. The MST analysis of dsDNA binding by 5/6-FAM-labeled compounds 13a (A) and 14a (B), and ssDNA binding by 5/6-FAM-labeled compounds 13a (D) and 14a (E) was performed using the Monolith NT.115 instrument (NanoTemper). Binding was measured between increasing concentration (6.1 nM–200 µM) of dsDNA (76 bp fragment) and 0.437 µM of the indicated compounds labeled with 5/6-FAM. A control experiment was performed with DNA and 5/6-FAM dye (C,F).
(§3) Microscale thermophoresis was performed using the Monolith NT.115 instrument (NanoTemper Technologies GmbH, Munich, Germany). Binding between dsDNA (76 bp) or ssDNA (76 nt) fragments and test compounds labeled with 5/6-FAM was measured. […] All data were analyzed using MO Affinity Analysis software (NanoTemper, Munich, Germany).

ssDNA (76 nt) fragment = experiment: Microscale thermophoresis (MST), ssDNA binding; set-up: species or system Homo sapiens; settings: Monolith NT.115, 0.437 µM 5/6-FAM-labeled compound, EDBS buffer pH 8, 32 °C 1 h, scanned at 25 °C, at least two independent experiments, read-out: Binding constant, single-stranded DNA (MST)
Procedure: as §1, §2, §3

[3] = test system: 76 bp dsDNA fragment containing the sequence of β-actin; experiment: Surface plasmon resonance (SPR), dsDNA binding; set-up: species or system Homo sapiens; settings: 50 and 100 µM compound over immobilized 76 bp dsDNA, HBS-EP buffer
Procedure: Standard surface plasmon resonance (SPR) analyses using a Biacore T200 (GE Healthcare, Warsaw, Poland) were performed essentially as described in the manufacturers’ manual. DNA binding by all tested compounds was studied using a 5′-biotinylated 76 nt ssDNA or 76 bp dsDNA fragment containing the sequence of β-actin (Homo sapiens), immobilized on a streptavidin matrix-coated sensor chip SA (GE Healthcare, Warsaw, Poland). All oligonucleotides were commercially synthesized (oligo.pl, Poland; Figures S3 and S4). The dsDNA was immobilized on the sensor surface to yield a final value of ~50 RU for dsDNA or ~100 RU. Experiments were performed at 25 °C, and the running buffer was HBS-EP (150 mM NaCl, 10 mM HEPES (pH = 7.4), 3 mM EDTA, and 0.05% Surfactant P20). In binding experiments, the buffer flow rate was set to 15 µL/min, and in kinetic experiments, the buffer flow rate was 30 µL/min. The data were analyzed using Biacore T200 evaluation software (GE Healthcare, Warsaw, Poland). The results are presented as sensorgrams obtained after subtracting the background response signal from a reference flow cell and from a control experiment with buffer injection.
Figure 2S. Cytotoxicity of compounds 1a–9a as assessed by the MTT assay. Two different cell lines were used: A) HB‐2 and B) MDA‐MB‐231.
Figure 3S. Surface plasmon resonance SPR analysis of double‐stranded DNA (dsDNA) binding by various peptidomimetics. The SPR analysis of dsDNA binding was performed using: A) 50 μM and B) 100 μM of the indicated compounds, flowed over the SA sensor chip surface with immobilized 76 bp biotinylated DNA fragment containing the sequence of beta‐ actin (Homo sapiens). Injections were performed in HBS‐EP buffer. HBS‐EP was also used as […]
Figure 4S. SPR analysis of DNA binding by compound 5a. […] (C) Kinetic constants calculated from at least three experiments using Biacore T200 Evaluation Software […]

Row | Cell Permeablility (Target): cellular localization (HB2 and MDA-MB-231 cells) | Compound | Cell membrane crossing and localization, in words (HB2 and MDA-MB-231 cells) | Cytotoxicity at the concentration used in the cell experiments, in words [1] | DNA binding class set arbitrarily from the SPR experiment (Figure S3) [3] | Cytotoxicity (percentage of dead cells) [1] | other results
1 | cytoplasm | 5′,6-FAM -O2Oc-(D-arg)6-O2Oc-NH2 [2a] | partially visible in the cytoplasm in the form of granules | slightly cytotoxic | – | – | –
2 | cytoplasm | 5′,6-FAM -O2Oc-(Har)6-O2Oc-NH2 [3a] | partially visible in the cytoplasm in the form of granules | slightly cytotoxic | – | – | –
3 | cytoplasm | 5′,6-FAM-O2Oc-(Arg)6-O2Oc-NH2 [1a] | partially visible in the cytoplasm in the form of granules | slightly cytotoxic | – | – | Kd [2]: 7.4 ± 0.1 µM; Kd (ssDNA (76 nt) fragment): 0.02 ± 0.04 µM
4 | nucleus | N=C(N)NCCOCCOCC(=O)NC[C@H](NC(=O)COCCOCCNC(=O)c1ccc2c(c1)C(=O)OC21c2ccc(O)cc2Oc2cc(O)ccc21)C(=O)N[C@@H](CNC(=O)COCCOCCNC(=N)N)C(=O)N[C@@H](CNC(=O)COCCOCCNC(=N)N)C(=O)N[C@@H](CNC(=O)COCCOCCNC(=N)N)C(=O)N[C@@H](CNC(=O)COCCOCCNC(=N)N)C(=O)N[C@@H](CNC(=O)COCCOCCNC(=N)N)C(=O)N[C@@H](CNC(=O)COCCOCCNC(=N)N)C(=O)N[C@@H](CNC(=O)COCCOCCNC(=N)N)C(=O)NCCOCCOCC(N)=O [compound 14a, 5′,6-FAM-O2Oc-[Dap(GO2)]8-O2Oc-NH2] | efficiently penetrate the membrane and localized in the nucleus | – | – | – | –

Continued, compound first:

Row | Compound | Cell Permeablility (Target): cellular localization (HB2 and MDA-MB-231 cells) | Cell membrane crossing and localization, in words (HB2 and MDA-MB-231 cells) | Cytotoxicity at the concentration used in the cell experiments, in words [1] | DNA binding class set arbitrarily from the SPR experiment (Figure S3) [3] | Cytotoxicity (percentage of dead cells) [1] | other results
5 | 5′,6-FAM [compound 10, reference compound] | – | – | – | – | – | Kd [2]: 639 ± 703 µM; Kd (ssDNA (76 nt) fragment): 399 ± 497 µM
6 | NCCOCCOCC(=O)NC[C@H](NC(=O)COCCOCCNC(=O)c1ccc2c(c1)C(=O)OC21c2ccc(O)cc2Oc2cc(O)ccc21)C(=O)N[C@@H](CNC(=O)COCCOCCN)C(=O)N[C@@H](CNC(=O)COCCOCCN)C(=O)N[C@@H](CNC(=O)COCCOCCN)C(=O)N[C@@H](CNC(=O)COCCOCCN)C(=O)N[C@@H](CNC(=O)COCCOCCN)C(=O)NCCOCCOCC(N)=O [8a, 5′,6-FAM-O2Oc-[Dap(O2)]6-O2Oc-NH2] ({5FAM-AEEA}-[Dap](AEEA)[Dap](AEEA)[Dap](AEEA)[Dap](AEEA)[Dap](AEEA)[Dap](AEEA)[AEEA]-NH2) | – | did not cross the cell membrane | – | – | – | –
7 | NC(=O)COCCOCCNC(=O)[C@H](CNC(=O)COCCOCCO)NC(=O)[C@H](CNC(=O)COCCOCCO)NC(=O)[C@H](CNC(=O)COCCOCCO)NC(=O)[C@H](CNC(=O)COCCOCCO)NC(=O)[C@H](CNC(=O)COCCOCCO)NC(=O)[C@H](CNC(=O)COCCOCCO)NC(=O)COCCOCCNC(=O)c1ccc2c(c1)C(=O)OC21c2ccc(O)cc2Oc2cc(O)ccc21 [9a, 5′,6-FAM-O2Oc-[Dap(HO2)]6-O2Oc-NH2] ({5FAM-AEEA}-[Dap](Acetyl(2-(HOCH2CH2OCH2CH2O)))[Dap](Acetyl(2-(HOCH2CH2OCH2CH2O)))[Dap](Acetyl(2-(HOCH2CH2OCH2CH2O)))[Dap](Acetyl(2-(HOCH2CH2OCH2CH2O)))[Dap](Acetyl(2-(HOCH2CH2OCH2CH2O)))[Dap](Acetyl(2-(HOCH2CH2OCH2CH2O)))[AEEA]-NH2) | – | did not cross the cell membrane | – | – | – | –
8 | N=C(N)NCCC[C@H](NC(=O)COCCOCCN)C(=O)N[C@@H](CCCNC(=N)N)C(=O)N[C@@H](CCCNC(=N)N)C(=O)N[C@@H](CCCNC(=N)N)C(=O)N[C@@H](CCCNC(=N)N)C(=O)N[C@@H](CCCNC(=N)N)C(=O)NCCOCCOCC(N)=O [compound 1, O2Oc(Arg)6-O2Oc-NH2] | – | – | – | Moderate | 10% | –
9 | N=C(N)NCCC[C@@H](NC(=O)COCCOCCN)C(=O)N[C@H](CCCNC(=N)N)C(=O)N[C@H](CCCNC(=N)N)C(=O)N[C@H](CCCNC(=N)N)C(=O)N[C@H](CCCNC(=N)N)C(=O)N[C@H](CCCNC(=N)N)C(=O)NCCOCCOCC(N)=O [compound 2, O2Oc(D-arg)6-O2Oc-NH2] | – | – | – | Moderate | 15% | –
10 | N=C(N)NCCCC[C@H](NC(=O)COCCOCCN)C(=O)N[C@@H](CCCCNC(=N)N)C(=O)N[C@@H](CCCCNC(=N)N)C(=O)N[C@@H](CCCCNC(=N)N)C(=O)N[C@@H](CCCCNC(=N)N)C(=O)N[C@@H](CCCCNC(=N)N)C(=O)NCCOCCOCC(N)=O [compound 3, O2Oc-(Har)6-O2Oc-NH2] | – | – | – | Weak | 10% | –
